These results are taken from patent publication US7517911B2, “3,4,5-trimethoxy phenyl-based ester compound and preparation method thereof and whitening cosmetic composition containing the same” (Amorepacific Corporation, priority 2001, dated 2009).

The subject of one data set is guinea pig skin. The data set can be described thus: Test for radiation toxicity (UVA). The class given is in vivo. On the procedure: The hairs on the backs of ten (10) guinea pigs were removed. After fixing the pigs, the back was divided into six (6) areas each having 2.0 cm×2.0 cm area, three (3) areas on the left side and three (3) on the right side. Right side areas were control areas prevented from being radiated, and left side areas were radiation areas. 1% (w/v) diluted solutions of ester compounds of Examples 1˜6 were applied thereto with an equal amount of 50 μl respectively, while using vehicle (1,3-butyleneglycol:ethanol=7:3) as a negative control, and using 0.1% 8-MOP(methoxypsoralene) as a positive control. After 30 minutes later, left sides of the back of the pig was shielded from light by aluminum foil, and UVA(320˜380 nm) was radiated from 10 cm distant with an final energy of 15J/cm^2 by using ultraviolet radiation device (waldmann). The skin of the guinea pig was observed after 24, 48 and 72 hours later. The irritation was graded as shown in table 5 with 0˜4 grades according to the intensity of the erythema and edema, and the sum was calculated. In the evaluation, the maximum value of the measurement that performed after 24, 48 and 72 hours later was chosen, and then the Irritation Index of an animal skin was calculated according to mathematical formula 1, and finally, the Radiation Toxicity Index was calculated according to mathematical Formula 2. Irritation Index of an animal skin=(Σ maximum value of erythema index+Σ maximum value of edema index)/number of animals [Mathematical Formula 1] Radiation Toxicity Index=(Irritation Index of an animal skin in an area of UV radiation)−(Irritation Index of an animal skin in an area UV non-radiation) [Mathematical Formula 2]

Another data set relates to rabbit skin. In words: Test for skin irritation on animals (Draize P.I.I.). The class given is in vivo, rabbits. The following applies: 1% diluted solution, 0.5 ml; for P.I.I.: measured 24 and 72 hours after application. On the procedure:
The hairs on the backs of six (6) healthy male rabbits were removed. After making areas of 2.5 cm×2.5 cm on the left and right sides of the back of each rabbit, nothing was applied on the left area of the back as control area, and 1% diluted solutions of the ester compounds of Examples 1˜6 (solvent was 1,3-butyleneglycol:ethanol=7:3) were applied on the right area of the back of the rabbits with an amount of 0.5 ml, one compound for each rabbit respectively. Irritations such as erythema, rash or edema were measured 24 hours and 72 hours after the application. In addition, the degree of irritation was determined according to the conventional, “P.I.I.” (Primary Irritation Index) of Draize, and the results are shown in Table 6.

Another data set has as its system Mel-Ab cells. In words: Melanin-inhibiting effect in the melanocytes (Dooley method). Type of data set: cell-based, C57BL/6. Conditions: 10 ppm in culture medium, absorbance at 400 nm, compared with cells cultured without compound.
In data set [1] the test system is human skin. The data set can be described thus: Test for application to human skin (patch test, CTFA Guideline). The class given is in vivo. The following applies: for The number of volunteers having reaction, mark +: + = Intense erythema; for The number of volunteers having reaction, mark + / The number of volunteers having reaction, mark ++ / The number of volunteers having reaction, mark +++ / The number of volunteers having reaction, mark ± / The number of volunteers having reaction, mark −: 1% in patch base, n = 30; for The number of volunteers having reaction, mark ++: ++ = Intense erythema with edema; for The number of volunteers having reaction, mark +++: +++ = Intense erythema with edema &vesicle; for The number of volunteers having reaction, mark ±: ± = Mild erythema; for The number of volunteers having reaction, mark −: − = No visible reactions; for Average reaction (n = 30): {(grade × number of volunteers) × 100}/{maximum grade × total volunteers × number of test}, non-irritation standard value 1.0. On the procedure:
Each of the ester compounds of Examples 1˜6 were dissolved in a patch base shown in Table 8 to be 1% concentration respectively, to prepare test samples. 20 μl of each test sample was dropped in a Finn Chamber to make a patch, and the patch was attached to antebrachial skin (test region) and fixed with micro tape. The patch was attached for 24 hours, and after removing the patch, the test region was checked with marking pen, and then the region was observed after 1 and 24 hours.

In data set [2] the test system is human skin. The data set can be described thus: Whitening effect on the human skin (UVB-induced pigmentation, Chromameter). Type of data set: in vivo. Conditions: applied for 10 weeks after UVB, 12 male volunteers. The text has this: The brachia of twelve (12) healthy volunteers (males) were attached with opaque tape having 1.5 cm diameter holes, and then irradiated with UVB (ultraviolet rays B) in 1.5˜2 times the intensity of the minimum amount to form erythema for each volunteer, to induce pigmentation. After irradiating the UVB, 1% diluted solutions of the ester compounds of Examples 1˜6 (solvent was 1,3-butyleneglycol:ethanol=7:3) were applied on the above treated brachia for ten (10) weeks (the above 1% diluted solution was not applied on one brachium), and the colors of the skins thereof were measured by Chromameter CR2002 (manufactured by Minolta; Japan) per every one week. The difference of “L”, that is, “Δ L”, the amount of the increase of brightness of skin compared with those not applied with diluted solution, was measured. For reference, measurements for the cases that 3% kojic acid and vehicle (solvent) were applied were performed.

[3] abbreviates: 1% diluted solution (1,3-butyleneglycol:ethanol=7:3).
[4] abbreviates: 1% (w/v) solution 50 μl, UVA 15J/cm^2, observed 24, 48 and 72 hours.
The mark [5] stands for this setting: 1% (w/v) solution, UVA 15J/cm^2.

In the case of “2-methyl-5-(methylethylphenyl)-2-(3,4,5-trimethoxyphenyl)acetate [Example 2]”, in the data set on guinea pig skin (in vivo), the “Determination (radiation toxicity)” value is reported as “Radiation Non-Toxic” and the “Radiation Toxicity Index” value was found to be 0. Moreover, in the data set on rabbit skin, the “Determination (skin irritation)” value is “No irritation” and the P.I.I. is 0.345. Also, the “Melanin generation ratio (%)” value with Mel-Ab cells is given as 51.2%. Besides, in the data set on human skin [1] (24 hours later), the “The number of volunteers having reaction, mark +” value amounted to 0; the “The number of volunteers having reaction, mark ++” value worked out at 0; the “The number of volunteers having reaction, mark +++” value (from here on “The number … mark +++”) is given as 0; the “The number of volunteers having reaction, mark ±” value (from here on “The number … mark ±”) was determined as 0. For the same molecule, the “The number of volunteers having reaction, mark −” value (“The number … mark −” below) in the data set on human skin [1] (24 hours later) worked out at 30. For the same molecule, in the data set with human skin [1] (48 hours later), the “The number of volunteers having reaction, mark +” value was 0; the “The number of volunteers having reaction, mark ++” value stood at 0; the “The number … mark +++” value was found to be 0; the “The number … mark ±” value amounted to 1. Further, the “The number … mark −” value in the data set on human skin [1] (48 hours later) was 29. In addition, the “Average reaction (n = 30)” value with human skin [1] was 0.42. Moreover, the “Increase of brightness of skin (Δ L)” value with human skin [2] (setting [3]) is listed as 1.51 ± 0.13.

For the molecule “5-methyl-2-(methylethyl)phenyl-3-(3,4,5-trimethoxyphenyl)propanoate [Example 5]”, in the data set on guinea pig skin (in vivo), the “Determination (radiation toxicity)” value is listed as “Radiation Non-Toxic” and the “Radiation Toxicity Index” value is 0. Besides, in the data set with rabbit skin, the “Determination (skin irritation)” value is “No irritation” and the P.I.I. worked out at 0.375. Further, the “Melanin generation ratio (%)” value in the data set on Mel-Ab cells is on record as 50.0%. In the data set on human skin [1] (24 hours later), the “The number of volunteers having reaction, mark +” value worked out at 0; the “The number of volunteers having reaction, mark ++” value amounted to 0; the “The number … mark +++” value is recorded as 0; the “The number … mark ±” value was found to be 0. Also, the “The number … mark −” value in the data set with human skin [1] (24 hours later) worked out at 30. In the data set on human skin [1] (48 hours later), the “The number of volunteers having reaction, mark +” value was 0; the “The number of volunteers having reaction, mark ++” value stood at 0; the “The number … mark +++” value was determined as 0; the “The number … mark ±” value amounted to 0. The “The number … mark −” value with human skin [1] (48 hours later) is on record as 30. Also, the “Average reaction (n = 30)” value in the data set on human skin [1] is recorded as 0.00. The “Increase of brightness of skin (Δ L)” value with human skin [2] (setting [3]) is listed as 1.40 ± 0.12.

On to `COc1cc(C=CC(=O)O)cc(OC)c1OC` [3,4,5-trimethoxy cinnamic acid, reference compound], for which the “Melanin generation ratio (%)” value in the data set with Mel-Ab cells came to 96.3%.

In the case of `COc1cc(CCC(=O)O)cc(OC)c1OC` [3,4,5-trimethoxy hydrocinnamic acid, reference compound], the “Melanin generation ratio (%)” value in the data set on Mel-Ab cells amounted to 92.5%.

Take `COc1cc(CC(=O)O)cc(OC)c1OC` [3,4,5-trimethoxy phenylacetic acid, reference compound]: in the data set on Mel-Ab cells, the “Melanin generation ratio (%)” value came to 95.8%.

As for `Cc1ccc(C(C)C)cc1O` [Carvacrol, carvacrol, reference compound], in the data set with Mel-Ab cells, the “Melanin generation ratio (%)” value stood at 91.5%.

Turning to `COc1cc(CC(=O)Oc2cc(C)ccc2C(C)C)cc(OC)c1OC` [Example 1], in the data set on guinea pig skin (setting [4]), the “Radiation Toxicity Index” value came out at 0. Moreover, the “Determination (radiation toxicity)” value in the data set on guinea pig skin (setting [5]) is given as “Radiation Non-Toxic”. In the data set with rabbit skin, the “Determination (skin irritation)” value is given as “No irritation” and the P.I.I. turned out to be 0.375. Besides, in the data set on Mel-Ab cells, the “Melanin generation ratio (%)” value is 47.8%. Moreover, in the data set on human skin [1] (24 hours later), the “The number of volunteers having reaction, mark +” value was 0; the “The number of volunteers having reaction, mark ++” value stood at 0; the “The number … mark +++” value amounted to 0; the “The number … mark ±” value worked out at 2. In addition, the “The number … mark −” value in the data set on human skin [1] (24 hours later) amounted to 28. In addition, in the data set on human skin [1] (48 hours later), the “The number of volunteers having reaction, mark +” value was found to be 0; the “The number of volunteers having reaction, mark ++” value was found to be 0; the “The number … mark +++” value is 0; the “The number … mark ±” value was 0. Besides, the “The number … mark −” value in the data set with human skin [1] (48 hours later) was 30. In addition, the “Average reaction (n = 30)” value with human skin [1] turned out to be 0.83. The “Increase of brightness of skin (Δ L)” value in the data set on human skin [2] (setting [3]) is given as 1.71 ± 0.25.

`COc1cc(/C=C/C(=O)Oc2cc(C)ccc2C(C)C)cc(OC)c1OC` [Example 3, 5-methyl-2-(methylethyl)phenyl(2E)-3-(3,4,5-trimethoxyphenyl)-2-propanoate]: the “Radiation Toxicity Index” value in the data set on guinea pig skin (setting [4]) worked out at 0. Besides, in the data set on guinea pig skin (setting [5]), the “Determination (radiation toxicity)” value is recorded as “Radiation Non-Toxic”. In addition, in the data set on rabbit skin, the “Determination (skin irritation)” value is given as “No irritation” and the P.I.I. came to 0.375. Besides, in the data set on Mel-Ab cells, the “Melanin generation ratio (%)” value came out at 45.6%. Further, in the data set with human skin [1] (24 hours later), the “The number of volunteers having reaction, mark +” value is given as 0; the “The number of volunteers having reaction, mark ++” value worked out at 0; the “The number … mark +++” value worked out at 0; the “The number … mark ±” value is reported as 0. The “The number … mark −” value in the data set on human skin [1] (24 hours later) turned out to be 30. For the same molecule, in the data set with human skin [1] (48 hours later), the “The number of volunteers having reaction, mark +” value amounted to 0; the “The number of volunteers having reaction, mark ++” value is on record as 0; the “The number … mark +++” value is listed as 0; the “The number … mark ±” value stood at 0. The “The number … mark −” value with human skin [1] (48 hours later) worked out at 30. For the same molecule, the “Average reaction (n = 30)” value with human skin [1] was determined as 0.00. In the data set on human skin [2] (setting [3]), the “Increase of brightness of skin (Δ L)” value came out at 1.38 ± 0.11.

As to `COc1cc(/C=C/C(=O)Oc2cc(C(C)C)ccc2C)cc(OC)c1OC` [Example 4, 2-methyl-5-(methylethyl)phenyl(2E)-3-(3,4,5-trimethoxyphenyl)-2-propanoate], the “Radiation Toxicity Index” value in the data set with guinea pig skin (setting [4]) is given as 0. Moreover, in the data set with guinea pig skin (setting [5]), the “Determination (radiation toxicity)” value is recorded as “Radiation Non-Toxic”. Also, in the data set with rabbit skin, the “Determination (skin irritation)” value was “No irritation” and the P.I.I. is 0.350. Besides, the “Melanin generation ratio (%)” value with Mel-Ab cells came out at 58.9%. In the data set on human skin [1] (24 hours later), the “The number of volunteers having reaction, mark +” value was found to be 0; the “The number of volunteers having reaction, mark ++” value came to 0; the “The number … mark +++” value came out at 0; the “The number … mark ±” value is recorded as 1. Also, the “The number … mark −” value in the data set with human skin [1] (24 hours later) was determined as 29. In the data set with human skin [1] (48 hours later), the “The number of volunteers having reaction, mark +” value stood at 0; the “The number of volunteers having reaction, mark ++” value stood at 0; the “The number … mark +++” value stood at 0; the “The number … mark ±” value amounted to 0. Besides, the “The number … mark −” value in the data set on human skin [1] (48 hours later) is 30. Besides, the “Average reaction (n = 30)” value with human skin [1] was found to be 0.42. In addition, the “Increase of brightness of skin (Δ L)” value in the data set on human skin [2] (setting [3]) was 1.22 ± 0.18.

Take `O=c1cc(CO)occ1O` [Kojic acid, kojic acid, reference compound]: in the data set on Mel-Ab cells, the “Melanin generation ratio (%)” value is 88.0%. Moreover, the “Increase of brightness of skin (Δ L)” value in the data set with human skin [2] (3% kojic acid) was 0.99 ± 0.11.

As for `Cc1ccc(C(C)C)c(O)c1` [Thymol, thymol, reference compound], the “Melanin generation ratio (%)” value in the data set with Mel-Ab cells came to 94.5%.
